# From patent US20140088192A1, “SUBCUTANEOUSLY INFUSIBLE LEVODOPA PRODRUG COMPOSITIONS AND METHODS OF INFUSION” (SynAgile Corporation, priority 2010, published 2014)
# Legend:
# [1] = Hydrolysis of LDEE salts to LD in aqueous solution, monitored by HPLC; format: physicochemical; conditions: 2.5 M
# [2] = pH change of LDEE.HCl solutions on holding; format: physicochemical; conditions: for pH of about 0.48M LDEE•HCl Solution / pH of about 0.95M LDEE•HCl Solution: 40° C.; for pH: about 2.7 M
# Experimental: An about 2.6 M LDEE.HCl pH 2.1 aqueous solution was prepared by dissolving 1.506 g LDEE in 1.3 mL of aqueous 5M HCl and adjusting the pH by adding 0.24 μL of 1 M HCl. […] After 24 hours, the pH was 2.0.
# To determine whether hydrolysis of subcutaneously infusible solutions of 0.95 M and 0.48 M LDEE.HCl concentrations excessively lowers their pH or drives their LD concentration beyond the saturation point where LD could precipitate, their starting pH of less <3 adjusted by adding an about 1.5 M trisodium citrate solution, were kept at 40° C. for 24 hrs.
structure (smiles),measurement,setting,value
"CCOC(=O)[C@@H](N)Cc1ccc(O)c(O)c1.Cl [LDEE.HCl, LDEE Hydrochloride]","% of LDEE.HCl hydrolyzed in the 21 week period, in addition to initial 0.15%","[1]; pH 3.0, about 4° C.",0.36%
same,% of the LDEE.HCl hydrolyzed to LD,"[1]; pH 4.5 citrate, 24 hours at 23±2° C.",0.39%
same,pH of about 0.48M LDEE•HCl Solution,"[2]; 0 h, starting pH 4.19",4.19
same,pH of about 0.95M LDEE•HCl Solution,"[2]; 0 h, starting pH 4.2",4.2
same,pH of about 0.95M LDEE•HCl Solution,"[2]; 0 h, starting pH 4.4",4.4
same,pH of about 0.48M LDEE•HCl Solution,"[2]; 0 h, starting pH 4.45",4.45
same,pH of about 0.48M LDEE•HCl Solution,"[2]; 0 h, starting pH 4.59",4.59
same,pH of about 0.95M LDEE•HCl Solution,"[2]; 0 h, starting pH 4.6",4.6
same,pH of about 0.48M LDEE•HCl Solution,"[2]; 0 h, starting pH 4.78",4.78
same,pH of about 0.95M LDEE•HCl Solution,"[2]; 0 h, starting pH 4.82",4.82
same,pH of about 0.48M LDEE•HCl Solution,"[2]; 0 h, starting pH 5.01",5.01
same,pH of about 0.95M LDEE•HCl Solution,"[2]; 0 h, starting pH 5.01",5.01
same,pH of about 0.95M LDEE•HCl Solution,"[2]; 0 h, starting pH 5.3",5.3
same,pH of about 0.48M LDEE•HCl Solution,"[2]; 0 h, starting pH 5.31",5.31
same,pH of about 0.95M LDEE•HCl Solution,"[2]; 0 h, starting pH 5.6",5.6
same,pH of about 0.48M LDEE•HCl Solution,"[2]; 0 h, starting pH 5.61",5.61
same,pH of about 0.48M LDEE•HCl Solution,"[2]; 2 h, starting pH 4.19",4.43
same,pH of about 0.95M LDEE•HCl Solution,"[2]; 2 h, starting pH 4.2",4.19
same,pH of about 0.95M LDEE•HCl Solution,"[2]; 2 h, starting pH 4.4",4.38
same,pH of about 0.48M LDEE•HCl Solution,"[2]; 2 h, starting pH 4.45",4.58
same,pH of about 0.48M LDEE•HCl Solution,"[2]; 2 h, starting pH 4.59",4.68
same,pH of about 0.95M LDEE•HCl Solution,"[2]; 2 h, starting pH 4.6",4.61
same,pH of about 0.48M LDEE•HCl Solution,"[2]; 2 h, starting pH 4.78",4.85
same,pH of about 0.95M LDEE•HCl Solution,"[2]; 2 h, starting pH 4.82",4.74
same,pH of about 0.48M LDEE•HCl Solution,"[2]; 2 h, starting pH 5.01",5.01
same,pH of about 0.95M LDEE•HCl Solution,"[2]; 2 h, starting pH 5.01",5.01
same,pH of about 0.95M LDEE•HCl Solution,"[2]; 2 h, starting pH 5.3",5.34
same,pH of about 0.48M LDEE•HCl Solution,"[2]; 2 h, starting pH 5.31",5.42
same,pH of about 0.95M LDEE•HCl Solution,"[2]; 2 h, starting pH 5.6",5.68
same,pH of about 0.48M LDEE•HCl Solution,"[2]; 2 h, starting pH 5.61",5.65
same,pH of about 0.48M LDEE•HCl Solution,"[2]; 6 h, starting pH 4.19",4.34
same,pH of about 0.95M LDEE•HCl Solution,"[2]; 6 h, starting pH 4.2",4.02
same,pH of about 0.95M LDEE•HCl Solution,"[2]; 6 h, starting pH 4.4",4.28
same,pH of about 0.48M LDEE•HCl Solution,"[2]; 6 h, starting pH 4.45",4.54
same,pH of about 0.48M LDEE•HCl Solution,"[2]; 6 h, starting pH 4.59",4.6
same,pH of about 0.95M LDEE•HCl Solution,"[2]; 6 h, starting pH 4.6",4.53
same,pH of about 0.48M LDEE•HCl Solution,"[2]; 6 h, starting pH 4.78",4.71
same,pH of about 0.95M LDEE•HCl Solution,"[2]; 6 h, starting pH 4.82",4.69
same,pH of about 0.48M LDEE•HCl Solution,"[2]; 6 h, starting pH 5.01",4.9
same,pH of about 0.95M LDEE•HCl Solution,"[2]; 6 h, starting pH 5.01",4.84
same,pH of about 0.95M LDEE•HCl Solution,"[2]; 6 h, starting pH 5.3",5.21
same,pH of about 0.48M LDEE•HCl Solution,"[2]; 6 h, starting pH 5.31",5.23
same,pH of about 0.95M LDEE•HCl Solution,"[2]; 6 h, starting pH 5.6",5.53
same,pH of about 0.48M LDEE•HCl Solution,"[2]; 6 h, starting pH 5.61",5.53
same,pH of about 0.95M LDEE•HCl Solution,"[2]; 24 h, starting pH 4.2",3.86
same,pH of about 0.95M LDEE•HCl Solution,"[2]; 24 h, starting pH 4.4",4.03
same,pH of about 0.48M LDEE•HCl Solution,"[2]; 24 h, starting pH 4.45",4.19
same,pH of about 0.48M LDEE•HCl Solution,"[2]; 24 h, starting pH 4.59",4.32
same,pH of about 0.95M LDEE•HCl Solution,"[2]; 24 h, starting pH 4.6",4.22
same,pH of about 0.48M LDEE•HCl Solution,"[2]; 24 h, starting pH 4.78",4.52
same,pH of about 0.95M LDEE•HCl Solution,"[2]; 24 h, starting pH 4.82",4.36
same,pH of about 0.48M LDEE•HCl Solution,"[2]; 24 h, starting pH 5.01",4.6
same,pH of about 0.95M LDEE•HCl Solution,"[2]; 24 h, starting pH 5.01",4.58
same,pH of about 0.95M LDEE•HCl Solution,"[2]; 24 h, starting pH 5.3",4.8
same,pH of about 0.48M LDEE•HCl Solution,"[2]; 24 h, starting pH 5.31",4.91
same,pH of about 0.95M LDEE•HCl Solution,"[2]; 24 h, starting pH 5.6",5.19
same,pH of about 0.48M LDEE•HCl Solution,"[2]; 24 h, starting pH 5.61",5.23
same,pH after 24 hours,"[2]; about 2.6 M, starting pH 2.1, 23±2° C.",2.0
same,pH,"[2]; start pH about 4.49, 24 h at 40° C.",4.2
same,pH,"[2]; start pH about 4.49, 48 h at 40° C.",4.0
